From patent US20220348590A1, “CYCLOOXYGENASE-2 INHIBITORS AND USES THEREOF” (The Board Institute, Inc., priority 2019, published 2022)
Where two headings read alike, the source gives them in different places.

Columns and labels:
[1] = Rat Plasma Protein Stability (% Remaining); assay type: in vitro ADME; details: average
[2] = Human Microsome Stability; assay type: in vitro ADME; details: human microsomes
[3] = rat plasma protein binding (PPB) assay; assay type: in vitro ADME; details: average, read-out: Rat Plasma Protein Binding % Bound Avg (converted)
Description: We have adapted a previously reported cyclooxygenase enzymatic assay utilizing LCMS quantification of PGE2 as the product of COX-1 and COX2 catalyzed conversion of arachidonic acid to evaluate the binding properties of newly synthesized ligands [Cao, 2011]. These optimized and miniaturized (384-well plates) LCMS-based COX-1 and COX2 enzymatic assays enabled us to quickly evaluate newly synthesized ligands for COX2 binding affinity and selectivity vs COX-1. Using a shorter ligand-enzyme incubation time in the LCMS assay (2 minutes vs 10 minutes) also permitted us to prioritize ligands with faster binding kinetics. Considering the relatively slow on-rate kinetics of known coxibs, due to their 3-step binding mechanism [Marnett, 2009], we believe that optimizing this critical parameter will be key to the successful development of a COX2 PET tracer. Using these enzymatic assays, we have evaluated>200 newly synthesized ligands against COX2 and >20 ligands against COX-1. Another critical property necessary for a good PET radiotracer is to have low non-specific binding (NSB) to increase the free fraction and maximize the signal to noise ratio. This property can be evaluated using in-vitro protein binding assays, and we have now evaluated>50 newly synthesized ligands in mouse, rat and human plasma protein binding (PPB) assays as well as >15 ligands in a mouse brain protein binding (BPB) assay.

[4] = target: T1, human recombinant COX2 (hCOX2) (UniProt P35354); test: LCMS-based COX2 enzymatic inhibition assay (PGE2 quantification); assay type: biochemical; design: COX2 2 minutes pge2/pge2d4 area ratio Avg; other: 2 minutes; readout pge2/pge2d4 area ratio; average; COX2 2 minutes pge2/pge2d4 area ratio Avg; LLE; average LLE; COX2 2 minutes pge2 area (counts) Avg; readout pge2 area (counts); other: 2 min; "ovine COX2 (oCOX2), human recombinant COX2 (hCOX2)"; details: 2 minutes; for COX2 2 minutes pge2/pge2d4 area ratio Avg. LLE / COX2 2 minutes pge2 area (counts) Avg. LLE: average LLE; for IC50: average
T1 sequence (P35354 1-604): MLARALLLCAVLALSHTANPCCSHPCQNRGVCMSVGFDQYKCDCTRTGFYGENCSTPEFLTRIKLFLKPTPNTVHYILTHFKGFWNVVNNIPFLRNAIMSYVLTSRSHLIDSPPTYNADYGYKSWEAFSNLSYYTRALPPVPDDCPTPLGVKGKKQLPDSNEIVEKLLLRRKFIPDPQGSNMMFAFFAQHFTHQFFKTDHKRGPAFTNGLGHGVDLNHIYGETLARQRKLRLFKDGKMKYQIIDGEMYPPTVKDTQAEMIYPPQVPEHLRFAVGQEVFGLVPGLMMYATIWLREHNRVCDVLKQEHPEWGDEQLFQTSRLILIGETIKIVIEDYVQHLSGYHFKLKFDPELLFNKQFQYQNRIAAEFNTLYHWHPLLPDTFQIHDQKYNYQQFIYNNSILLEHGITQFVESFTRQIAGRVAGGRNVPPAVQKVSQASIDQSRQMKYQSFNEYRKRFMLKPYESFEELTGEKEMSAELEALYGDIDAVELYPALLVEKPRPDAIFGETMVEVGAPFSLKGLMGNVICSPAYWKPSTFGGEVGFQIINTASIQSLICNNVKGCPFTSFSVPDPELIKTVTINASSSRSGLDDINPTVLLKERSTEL
Summary of the method: (§1)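 Ovine COX-1 (0.1 μg) or human recombinant COX2 (0.2 μg) in 100 mM Tris.HCl pH 8.0 with hematin and epinephrine, preincubated with inhibitor 10 min at 37 °C. Reaction with 5 μM arachidonic acid stopped after 2 min with HCl; PGE2 quantified by LC-MS-MS. IC50 from 12 concentrations in triplicate.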

[5] = target: T2, ovine COX-1 (oCOX-1) (Ovis aries, UniProt P05979); test: LCMS-based COX-1 enzymatic inhibition assay (PGE2 quantification); assay type: biochemical
T2 construct: purchased Cayman Chemicals (Ann Arbor, Mich.)
T2 sequence (P05979 25-600): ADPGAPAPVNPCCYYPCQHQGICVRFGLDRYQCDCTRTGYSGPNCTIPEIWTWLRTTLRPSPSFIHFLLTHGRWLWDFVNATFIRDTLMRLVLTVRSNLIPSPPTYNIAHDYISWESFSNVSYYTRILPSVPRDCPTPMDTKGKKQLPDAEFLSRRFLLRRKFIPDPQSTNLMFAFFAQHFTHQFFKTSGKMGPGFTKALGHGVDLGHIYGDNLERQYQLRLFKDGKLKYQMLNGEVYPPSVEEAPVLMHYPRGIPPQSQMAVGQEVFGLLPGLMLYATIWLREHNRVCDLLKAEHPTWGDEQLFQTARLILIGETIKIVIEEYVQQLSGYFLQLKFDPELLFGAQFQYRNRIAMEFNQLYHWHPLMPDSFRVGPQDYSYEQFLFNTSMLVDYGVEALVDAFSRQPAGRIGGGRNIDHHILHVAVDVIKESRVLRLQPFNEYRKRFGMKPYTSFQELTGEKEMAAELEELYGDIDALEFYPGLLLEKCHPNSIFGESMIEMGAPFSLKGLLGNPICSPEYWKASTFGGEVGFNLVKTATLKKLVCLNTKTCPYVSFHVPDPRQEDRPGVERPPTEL
Summary of the method: as §1

[6] = readout pge2/pge2d4 area ratio, read-out: COX2 2 minutes pge2/pge2d4 area ratio Avg. IC50
[7] = readout pge2 area (counts), read-out: COX2 2 minutes pge2 area (counts) Avg. IC50
[8] = 10 minutes, readout pge2 area (counts), average LLE
[9] = 10 minutes, readout pge2 area (counts), average, read-out: COX1 10 minutes pge2 area (counts) Avg. IC50
[10] = 10 minutes, pge2/pge2d4 area ratio, head of this section not shown, inferred
[11] = 10 minutes, pge2 area (counts), head of this section not shown, inferred
[12] = 10 minutes, pge2 area (counts), head of this section not shown, inferred, read-out: COX1 10 minutes pge2 area (counts) Avg. IC50
[13] = 10 minutes, readout pge2/pge2d4 area ratio, average, read-out: COX1 10 minutes pge2/pge2d4 area ratio Avg. IC50

| SMILES | Rat Plasma Protein Stability % Remaining Avg [1] [%] | Human Microsome Stability % Remaining Avg [2] [%] | fraction unbound [3] | COX2 2 minutes pge2/pge2d4 area ratio Avg. LLE ([4]; readout pge2/pge2d4 area ratio) | IC50 [4, 6] [nM] | COX2 2 minutes pge2 area (counts) Avg. LLE ([4]; readout pge2 area (counts)) | IC50 [4, 7] [nM] | IC50 [5] [nM] | COX1 10 minutes pge2/pge2d4 area ratio Avg. LLE ([5]; 10 minutes, readout pge2/pge2d4 area ratio, average LLE) | COX1 10 minutes pge2 area (counts) Avg. LLE [5, 8] | IC50 [5, 9] [nM] | COX1 10 minutes pge2/pge2d4 area ratio Avg. LLE [5, 10] | COX1 10 minutes pge2 area (counts) Avg. LLE [5, 11] | IC50 [5, 12] [nM] | IC50 [5, 13] [nM] |
| --- | --- | --- | --- | --- | --- | --- | --- | --- | --- | --- | --- | --- | --- | --- | --- |
| CS(=O)(=O)c1ccc(-c2cccc(NCc3ccc(F)cc3)n2)cc1 [Compound 13] | 101 | 62 | 0.021 | 4.5476 | 8.78 | 4.59 | 8.19 |  |  |  |  |  |  |  |  |
| CS(=O)(=O)c1ccc(-c2nc(NCc3ccco3)ccc2F)cc1 [Compound 218] |  | 15 |  | 3.092 | 1610 | 3.132 | 1720 |  |  |  |  |  |  |  |  |
| CS(=O)(=O)c1ccc(-c2cccc(/C=C\c3cccs3)n2)cc1 [Compound 41] | 100 |  | 0.021 | 3.735 | 19 | 3.716 | 21.7 | 52000 | 0.234 | 0.2543 | 49600 |  |  |  |  |
| CS(=O)(=O)c1ccc(-c2cccc(NCc3cccs3)n2)cn1 [Compound 59] |  | 28 |  | 5.112 | 32 | 5.062 | 42.6 | 52000 |  |  |  | 1.754 | 1.754 |  |  |
| CS(=O)(=O)c1ccc(-c2cnc3cnn(Cc4cccs4)c3n2)cc1 [Compound 94] |  |  |  | 4.786 | 71 | 4.818 | 69.9 |  |  |  |  | 2.552 | 2.532 | 10700 | 10200 |
| COc1ccc(NCc2cccs2)nc1-c1ccc(S(C)(=O)=O)nc1 [Compound 88] |  |  |  | 4.709 | 63.4 | 4.67 | 69.3 |  |  |  |  | 2.306 | 2.306 | 16000 | 16000 |
| CS(=O)(=O)c1ccc(-c2cccc(NCc3ccns3)n2)cc1 [Compound 87] |  |  |  | 4.854 | 61.9 | 4.881 | 56.5 |  |  |  |  | 1.97 | 1.899 | 50200 | 42600 |
| COc1ccc(NCc2ccoc2)nc1-c1ccc(S(C)(=O)=O)cc1 [Compound 66] |  |  |  | 4.554 | 37.3 | 4.505 | 42 | 52000 |  |  |  | 1.364 | 1.364 |  |  |
| CS(=O)(=O)c1ccc(-n2ccc3cnc(NCc4cccs4)nc32)cc1 [Compound 80] |  |  |  | 3.33 | 52 | 3.382 | 45.5 |  |  |  |  | 0.4422 |  |  | 37800 |
| CS(=O)(=O)c1ccc(-c2cccc(NCc3ccc[nH]3)n2)cc1 [Compound 73] |  |  |  | 4.8 | 42.9 | 4.74 | 45.2 |  |  |  |  | 2.183 | 2.127 | 17100 | 15000 |
| CS(=O)(=O)c1ccc(-c2ncc3ccn(Cc4cccs4)c3n2)cc1 [Compound 71] |  |  |  | 3.165 | 41.2 | 3.167 | 41.6 |  |  |  |  | 0.04679 |  |  | 49300 |
| CS(=O)(=O)c1ccc(-c2cccc(NCc3ccsc3)n2)cc1 [Compound 11] |  |  |  | 4.584 | 8.42 | 4.6244 | 8.13 |  |  | 0.8485 | 42800 |  |  |  |  |
| Cc1coc(CNc2cccc(-c3ccc(S(C)(=O)=O)cc3)n2)c1 [Compound 85] |  |  |  | 4.23 | 58.1 | 3.951 | 115 | 52000 |  |  |  | 1.134 | 1.134 |  |  |
